Reference: patent US11168073B2, “3,3-difluoroallylamines or salts thereof and pharmaceutical compositions comprising the same” (YUHAN CORPORATION, priority 2018, dated 2021)
Where a name gives a salt, the structure may show the parent alone. Read-outs that look alike come from different tables or passages of the source.

How the values were obtained:
Format in all cases: biochemical
recombinant human VAP-1 = target: T1, recombinant human VAP-1 (Homo sapiens, UniProt Q16853); experiment: Activity evaluation on recombinant human VAP-1 (Amplex Red/HRP-coupled hydrogen peroxide assay, benzylamine substrate); conditions: read-out: Inhibitory Activity (IC50, nM) human VAP-1
T1 construct: purchased R&D systems
T1 sequence (Q16853 1-763): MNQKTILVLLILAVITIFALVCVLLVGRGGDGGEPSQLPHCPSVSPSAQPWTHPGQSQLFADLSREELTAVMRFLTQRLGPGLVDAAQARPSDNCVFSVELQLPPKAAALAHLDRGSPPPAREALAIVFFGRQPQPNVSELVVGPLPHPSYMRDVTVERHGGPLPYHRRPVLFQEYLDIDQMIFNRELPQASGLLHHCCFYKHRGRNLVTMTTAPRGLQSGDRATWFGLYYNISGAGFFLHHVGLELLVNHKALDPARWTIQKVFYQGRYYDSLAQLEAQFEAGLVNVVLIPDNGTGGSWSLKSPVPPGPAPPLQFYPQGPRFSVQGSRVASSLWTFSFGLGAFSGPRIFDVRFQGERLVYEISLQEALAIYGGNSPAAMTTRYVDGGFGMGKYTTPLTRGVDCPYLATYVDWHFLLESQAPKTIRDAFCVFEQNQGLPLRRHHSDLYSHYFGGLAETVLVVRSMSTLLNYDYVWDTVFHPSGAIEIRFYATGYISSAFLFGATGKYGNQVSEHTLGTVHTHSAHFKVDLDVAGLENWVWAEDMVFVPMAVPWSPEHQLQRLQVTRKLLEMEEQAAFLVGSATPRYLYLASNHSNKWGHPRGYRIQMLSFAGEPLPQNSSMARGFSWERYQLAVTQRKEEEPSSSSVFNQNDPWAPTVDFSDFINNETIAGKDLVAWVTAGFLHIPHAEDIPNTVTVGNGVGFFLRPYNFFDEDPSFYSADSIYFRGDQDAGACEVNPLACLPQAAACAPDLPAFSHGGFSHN
Method in brief: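 Recombinant human VAP-1 in 50 mM sodium phosphate pH 7.4 preincubated 30 min at 37 °C with compound (8-point 1:3 series, <1% DMSO), then 1 mM benzylamine, 200 uM Amplex Red, 1 U/mL HRP added. H2O2-derived resorufin fluorescence (ex 544/em 590) followed 1–2 h; IC50 from four-parameter fit of rate inhibition.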

[1] = target: T2, recombinant human MAO-B (monoamine oxidase-B) (Homo sapiens, UniProt P27338); experiment: Activity evaluation on recombinant human MAO-B (Amplex Red/HRP-coupled assay, 1 mM benzylamine substrate); conditions: read-out: Inhibitory Activity (IC50, nM) MAO-B
T2 construct: purchased Sigma-Aldrich
T2 sequence (P27338 1-520): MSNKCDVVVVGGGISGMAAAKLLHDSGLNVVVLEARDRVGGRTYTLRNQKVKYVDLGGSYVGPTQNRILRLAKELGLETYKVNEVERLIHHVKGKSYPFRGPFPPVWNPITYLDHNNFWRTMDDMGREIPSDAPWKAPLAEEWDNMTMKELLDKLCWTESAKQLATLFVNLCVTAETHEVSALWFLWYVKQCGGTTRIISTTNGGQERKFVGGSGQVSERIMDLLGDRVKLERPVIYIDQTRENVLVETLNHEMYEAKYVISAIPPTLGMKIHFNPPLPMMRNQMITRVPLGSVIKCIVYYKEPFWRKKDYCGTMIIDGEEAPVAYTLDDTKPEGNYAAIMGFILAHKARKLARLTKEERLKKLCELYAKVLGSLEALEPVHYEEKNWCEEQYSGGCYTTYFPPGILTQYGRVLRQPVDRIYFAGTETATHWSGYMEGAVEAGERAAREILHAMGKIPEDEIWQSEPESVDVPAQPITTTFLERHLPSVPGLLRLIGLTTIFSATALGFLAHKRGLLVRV
Method in brief: (§1)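 Compounds preincubated 30 min at 37 °C with enzyme in 50 mM sodium phosphate pH 7.4 (final DMSO <1%, 8-point 1:3 dilutions); reaction started with 200 uM Amplex Red, 1 U/mL HRP and substrate (MAO-A 0.5 mM tyramine, MAO-B 1 mM benzylamine, DAO 1 mM putrescine). Resorufin fluorescence (ex 544/em 590 nm) followed over 1-2 h; IC50 from four-parameter logistic fit.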

[2] = target: T3, recombinant human DAO (diamine oxidase) (Homo sapiens, UniProt P19801); experiment: Activity evaluation on recombinant human DAO (Amplex Red/HRP-coupled assay, 1 mM putrescine substrate); conditions: read-out: Inhibitory Activity (IC50, nM) DAO
T3 construct: purchased R&D systems
T3 sequence (P19801 20-751): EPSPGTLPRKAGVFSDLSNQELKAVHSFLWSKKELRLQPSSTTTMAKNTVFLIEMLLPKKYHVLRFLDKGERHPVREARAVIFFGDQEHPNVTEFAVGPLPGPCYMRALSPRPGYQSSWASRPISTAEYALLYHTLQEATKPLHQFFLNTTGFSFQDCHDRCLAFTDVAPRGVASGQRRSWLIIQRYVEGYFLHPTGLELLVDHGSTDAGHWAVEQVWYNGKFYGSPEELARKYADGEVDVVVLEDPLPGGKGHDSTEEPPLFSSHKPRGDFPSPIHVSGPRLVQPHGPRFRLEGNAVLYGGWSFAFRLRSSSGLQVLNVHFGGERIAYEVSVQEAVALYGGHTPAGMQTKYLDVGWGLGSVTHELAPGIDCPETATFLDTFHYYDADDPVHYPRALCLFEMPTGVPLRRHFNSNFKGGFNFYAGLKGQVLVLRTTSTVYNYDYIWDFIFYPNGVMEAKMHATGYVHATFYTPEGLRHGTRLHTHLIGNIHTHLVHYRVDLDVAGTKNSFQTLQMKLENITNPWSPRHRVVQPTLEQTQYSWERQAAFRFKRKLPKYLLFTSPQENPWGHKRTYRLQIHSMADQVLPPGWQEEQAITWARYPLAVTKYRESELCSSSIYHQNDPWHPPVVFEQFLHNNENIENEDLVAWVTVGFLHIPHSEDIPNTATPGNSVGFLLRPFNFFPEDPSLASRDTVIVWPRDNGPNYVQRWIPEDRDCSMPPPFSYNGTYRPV
Method in brief: as §1

[3] = target: T4, recombinant human MAO-A (monoamine oxidase-A) (Homo sapiens, UniProt P21397); experiment: Activity evaluation on recombinant human MAO-A (Amplex Red/HRP-coupled assay, 0.5 mM tyramine substrate); conditions: read-out: Inhibitory Activity (IC50, nM) MAO-A
T4 construct: purchased Sigma-Aldrich
T4 sequence (P21397 1-527): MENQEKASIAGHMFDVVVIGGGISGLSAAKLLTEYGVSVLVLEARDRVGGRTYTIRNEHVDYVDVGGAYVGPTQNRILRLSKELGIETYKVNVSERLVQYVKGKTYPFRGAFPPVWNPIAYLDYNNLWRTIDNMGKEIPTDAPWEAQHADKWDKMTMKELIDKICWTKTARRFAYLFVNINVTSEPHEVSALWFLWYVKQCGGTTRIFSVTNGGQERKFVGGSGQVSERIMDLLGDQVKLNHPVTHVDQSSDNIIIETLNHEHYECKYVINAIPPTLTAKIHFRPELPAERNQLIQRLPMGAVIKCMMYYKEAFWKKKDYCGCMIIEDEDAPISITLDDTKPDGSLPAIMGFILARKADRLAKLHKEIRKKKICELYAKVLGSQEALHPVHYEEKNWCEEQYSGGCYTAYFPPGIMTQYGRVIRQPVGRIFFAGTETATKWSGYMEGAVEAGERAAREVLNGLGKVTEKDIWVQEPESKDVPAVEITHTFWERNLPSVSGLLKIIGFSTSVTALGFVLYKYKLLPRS
Method in brief: as §1

[4] = recombinant human VAP-1, benzylamine substrate
[5] = recombinant human VAP-1, 30 min preincubation at 37° C., 1 mM benzylamine

SMILES | IC50 (recombinant human VAP-1; [4]) [nM] | IC50 ([1]; 1 mM benzylamine substrate) [nM] | IC50 ([2]; 1 mM putrescine substrate) [nM] | IC50 ([3]; 0.5 mM tyramine substrate) [nM] | IC50 (recombinant human VAP-1; [5]) [nM] | IC50 ([1]; 1 mM benzylamine) [nM] | IC50 ([2]; 1 mM putrescine) [nM] | IC50 ([3]; 0.5 mM tyramine) [nM]
CCn1cc(-c2ccc(Cn3cnn(CC(CN)=C(F)F)c3=O)cc2)ccc1=O [Example 270, 5-[4-[[1-[2-(aminomethyl)-3,3-difluoro-allyl]-5-oxo-1,2,4-triazol-4-yl]methyl]phenyl]-1-ethyl-pyridin-2-one Trifluoroacetate] | 0.6 | > 100000 | > 100000 | > 100000 |  |  |  | 
CN1C(=O)CCc2cc(-c3cc(F)c(Cn4cnn(CC(CN)=C(F)F)c4=O)s3)ccc21 [Example 301, 6-[5-[[1-[2-(aminomethyl)-3,3-difluoro-allyl]-5-oxo-1,2,4-triazol-4-yl]methyl]-4-fluoro-2-thienyl]-1-methyl-3,4-dihydroquinolin-2-one trifluoroacetate] | 0.5 | > 100000 | 2680 | > 100000 |  |  |  | 
NCC(Cn1ncn(Cc2ccc(-c3ccc(C(F)(F)F)nc3)s2)c1=O)=C(F)F [Example 111, 2-[2-(aminomethyl)-3,3-difluoro-allyl]-4-[[5-[6-(trifluoromethyl)-3-pyridyl]-2-thienyl]methyl]-1,2,4-triazol-3-one Trifluoroacetate] |  |  |  |  | 0.4 | 9400 | 7200 | > 100000
NCC(Cn1ncn(-c2cnc(Br)cn2)c1=O)=C(F)F [Example 16, 2-[2-(aminomethyl)-3,3-difluoro-allyl]-4-(5-bromopyrazin-2-yl)-1,2,4-triazol-3-one Trifluoroacetate] |  |  |  |  | 4.6 | 38000 | 1100 | > 100000
NCC(Cn1ncn(Cc2ccc(-c3ccc4c(c3)OCO4)cc2)c1=O)=C(F)F [Example 268, 2-[2-(aminomethyl)-3,3-difluoro-allyl]-4-[[4-(1,3-benzodioxol-5-yl)phenyl]methyl]-1,2,4-triazol-3-one Trifluoroacetate] | 2.1 | 1870 | > 100000 | > 100000 |  |  |  | 
CN(C)c1ccc(-c2ccnc(-n3cnn(CC(CN)=C(F)F)c3=O)c2)cn1 [Example 57, 2-[2-(aminomethyl)-3,3-difluoro-allyl]-4-[4-[6-(dimethylamino)-3-pyridyl]-2-pyridyl]-1,2,4-triazol-3-one Trifluoroacetate] |  |  |  |  | 0.9 | 56400 | 30 | > 100000
CN(C)c1ccc(-c2ccc3cc(Cn4cnn(CC(CN)=C(F)F)c4=O)sc3c2)cn1 [Example 200, 2-[2-(aminomethyl)-3,3-difluoro-allyl]-4-[[6-[6-(dimethylamino)-3-pyridyl]benzothiophen-2-yl]methyl]-1,2,4-triazol-3-one Trifluoroacetate] | 1.9 | 740 | > 100000 | > 100000 |  |  |  | 
Cc1cc(-n2cnn(CC(CN)=C(F)F)c2=O)cnc1-c1ccc(S(C)(=O)=O)cc1 [Example 76, 2-[2-(aminomethyl)-3,3-difluoro-allyl]-4-[5-methyl-6-(4-methylsulfonylphenyl)-3-pyridyl]-1,2,4-triazol-3-one Trifluoroacetate] |  |  |  |  | 1.1 | 44000 | 32 | > 100000
NCC(Cn1ncn(Cc2ccc(-c3cc(F)c4c(c3)CCC(=O)N4)s2)c1=O)=C(F)F [Example 136, 6-[5-[[1-[2-(aminomethyl)-3,3-difluoro-allyl]-5-oxo-1,2,4-triazol-4-yl]methyl]-2-thienyl]-8-fluoro-3,4-dihydro-1H-quinolin-2-one Trifluoroacetate] |  |  |  |  | 0.4 | > 100000 | > 100000 | > 100000
Cc1cc(C#Cc2cnc3c(c2)NCCO3)cnc1-n1cnn(CC(CN)=C(F)F)c1=O [Example 244, 2-[2-(aminomethyl)-3,3-difluoro-allyl]-4-[5-[2-(2,3-dihydro-1H-pyrido[2,3-b][1,4]oxazin-7-yl)ethynyl]-3-methyl-2-pyridyl]-1,2,4-triazol-3-one ditrifluoroacetate] | 0.8 | 37000 | 9000 | > 100000 |  |  |  | 
